Paper PMC6934184, “Selective DNA-PKcs inhibition extends the therapeutic index of localized radiotherapy and chemotherapy” (The Journal of Clinical Investigation, 2019)

Molecular target: T1, RET M918T (Homo sapiens, UniProt P07949, M918T)
T1 construct: purchased Thermo Fisher Scientific (Life Technologies) SelectScreen
Test: SelectScreen LanthaScreen
Type: binding
Settings: read-out: % displacement
Procedure, shortened: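 SelectScreen broad panel; activity (Z'LYTE, Adapta) plus binding formats. ATP: Km app for CSF1R Z'LYTE; 10 for CAMK1 Adapta. Readout = % per kinase.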

T1 sequence (P07949 29-1114 M918T): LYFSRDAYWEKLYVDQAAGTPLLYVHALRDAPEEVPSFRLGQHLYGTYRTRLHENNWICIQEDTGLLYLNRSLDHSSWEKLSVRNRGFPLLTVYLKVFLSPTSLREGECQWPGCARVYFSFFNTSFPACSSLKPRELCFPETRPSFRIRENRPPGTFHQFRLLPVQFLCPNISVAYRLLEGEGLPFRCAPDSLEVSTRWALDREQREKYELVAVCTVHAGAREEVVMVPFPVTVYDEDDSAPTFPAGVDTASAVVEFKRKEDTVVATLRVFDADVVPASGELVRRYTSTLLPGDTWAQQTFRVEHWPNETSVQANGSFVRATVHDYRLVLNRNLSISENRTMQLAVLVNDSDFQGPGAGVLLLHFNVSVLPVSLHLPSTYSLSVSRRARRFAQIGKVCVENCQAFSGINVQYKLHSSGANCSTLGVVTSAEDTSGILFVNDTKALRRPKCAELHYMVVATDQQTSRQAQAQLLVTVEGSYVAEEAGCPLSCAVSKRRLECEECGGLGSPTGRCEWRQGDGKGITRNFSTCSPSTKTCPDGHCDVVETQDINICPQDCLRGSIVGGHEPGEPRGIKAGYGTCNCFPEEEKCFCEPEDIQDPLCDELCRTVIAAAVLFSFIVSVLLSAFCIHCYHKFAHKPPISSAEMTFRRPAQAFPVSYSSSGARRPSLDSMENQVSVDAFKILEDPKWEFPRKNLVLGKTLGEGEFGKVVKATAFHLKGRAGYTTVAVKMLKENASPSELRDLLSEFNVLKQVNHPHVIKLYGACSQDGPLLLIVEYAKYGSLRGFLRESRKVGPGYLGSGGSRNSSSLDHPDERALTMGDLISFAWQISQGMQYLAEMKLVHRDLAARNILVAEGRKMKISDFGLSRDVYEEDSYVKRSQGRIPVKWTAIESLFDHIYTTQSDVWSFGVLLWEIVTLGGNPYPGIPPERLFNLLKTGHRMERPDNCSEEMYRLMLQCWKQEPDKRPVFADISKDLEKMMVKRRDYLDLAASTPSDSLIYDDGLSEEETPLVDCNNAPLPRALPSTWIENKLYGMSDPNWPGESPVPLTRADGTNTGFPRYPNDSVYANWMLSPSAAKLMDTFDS

CN(C(=O)CN1CCOCC1)c1ccc2sc3c(-c4cccc5c(=O)cc(N6CC7CCC(C6)O7)oc45)cccc3c2c1 [NU5455]
inhibition at 1 µM: -3.5%
